Data published in patent US9586963B2 (GENFIT, priority 2011, dated 2017).
pEC50: −log10 of the molar value.

What was measured:
Rev-Erb alpha = target: T1, Rev-Erb alpha (Homo sapiens, UniProt P20393); experiment: M2H (mammalian two-hybrid) cellular activation assay of Rev-Erb alpha; type: cell-based; conditions: M2H assay, HEK293 cells; for pEC50: Gal4-Rev-Erb alpha / VP16-NCoR, luciferase reporter
T1 sequence (P20393 284-614 limits assumed): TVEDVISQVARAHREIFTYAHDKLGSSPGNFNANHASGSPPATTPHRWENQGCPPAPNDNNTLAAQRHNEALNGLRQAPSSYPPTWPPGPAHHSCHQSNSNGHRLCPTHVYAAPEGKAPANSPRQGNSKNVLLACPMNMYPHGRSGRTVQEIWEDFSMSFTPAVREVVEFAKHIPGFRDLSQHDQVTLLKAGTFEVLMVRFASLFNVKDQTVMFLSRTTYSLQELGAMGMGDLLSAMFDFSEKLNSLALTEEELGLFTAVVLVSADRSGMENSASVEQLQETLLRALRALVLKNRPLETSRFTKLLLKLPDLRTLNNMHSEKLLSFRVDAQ
In short: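 Six-point dose-response, 18 h, 37 °C, serum-free, in HEK293 cells carrying a Gal4-RE luciferase reporter with Gal4-Rev-Erb alpha or beta plus VP16-NCoR (corepressor interaction readout). EC50 and TOP activation (%) derived from luminescence across four experiments.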

SMILES | melting point [°C] | pEC50 (Rev-Erb alpha) | Emax (Rev-Erb alpha; relative to DMSO, at the tested dose, read-out: TOP activation) [%]
COc1ncc(F)cc1-c1ccc(C(F)(F)F)cc1Oc1nn2c(Cl)nnc2cc1C [Cpd.5-41, 3-chloro-7-methyl-6-((2-(2-methoxy-5-fluoropyridin-3-yl))-5-(trifluoromethyl)phenoxy)-[1,2,4]triazolo[4,3-b]pyridazine] | 163 to 166 | 6.00 to 7.00 | 
COc1cccc(-c2cccc(Oc3ccc4nnc(Cl)n4n3)c2)c1 [Cpd.3-14, 3-chloro-6-(3′-methoxybiphenyl-3-yloxy)-[1,2,4]triazolo[4,3-b]pyridazine] | 91.46 | 5.22 to 6.00 | 
Nc1cccc(-c2cc(F)ccc2Oc2ccc3nnc(Cl)n3n2)c1 [Cpd.4-119, 3-chloro-6-(3′-amino-5-fluorobiphenyl-2-yloxy)-[1,2,4]triazolo[4,3-b]pyridazine] | 248.2 | 5.22 to 6.00 | 
CC(C)CCNc1ccc(-c2ccccc2)c(Oc2ccc3nnc(Cl)n3n2)c1 [Cpd.4-175, 3-chloro-6-(4-((3-methylbutyl)amino)biphenyl-2-yloxy)-[1,2,4]triazolo[4,3-b]pyridazine] | 145 to 150 | 6.00 to 7.00 | 
CC(C)Nc1ccc(-c2ccccc2)c(Oc2ccc3nnc(Cl)n3n2)c1 [Cpd.4-189, 3-chloro-6-(4-isopropylamino-biphenyl-2-yloxy)-[1,2,4]triazolo[4,3-b]pyridazine] | 170 to 175 | > 7.00 | 
Cc1cc2nnc(C(F)(F)F)n2nc1Oc1cc(C(F)(F)F)ccc1-c1cncnc1 [Cpd.5-61, 7-methyl-6-(2-(pyrimidin-5-yl)-5-(trifluoromethyl)phenoxy)-3-(trifluoromethyl)-[1,2,4]triazolo[4,3-b]pyridazine] | 174 to 179 | 5.22 to 6.00 | 
COc1cccc(-c2cc(F)c(F)cc2Oc2ccc3nnc(Cl)n3n2)c1 [Cpd.4-152, 3-chloro-6-(4,5-difluoro-3′-methoxybiphenyl-2-yloxy)-[1,2,4]triazolo[4,3-b]pyridazine] | 102 | 5.22 to 6.00 | 
COc1cccc(-c2cc(F)c(F)cc2Oc2ccc3nnc(C(F)(F)F)n3n2)c1 [Cpd.4-150, 3-(trifluoromethyl)-6-(4,5-difluoro-3′-methoxybiphenyl-2-yloxy)-[1,2,4]triazolo[4,3-b]pyridazine] | 52 to 55 | 5.22 to 6.00 | 
FC(F)(F)c1ccc(-c2ccccc2)c(Oc2nn3c(Cl)nnc3cc2-c2ccccc2)c1 [Cpd.5-5, 3-chloro-7-phenyl-6-(4-trifluoromethyl-biphenyl-2-yloxy)-[1,2,4]triazolo[4,3-b]pyridazine] | 190 to 192 | 6.00 to 7.00 | 
Fc1ccc(Oc2ccc3nnc(Cl)n3n2)c(-c2ccc(F)c(F)c2)c1 [Cpd.4-115, 3-chloro-6-(5,3′,4′-trifluorobiphenyl-2-yloxy)-[1,2,4]triazolo[4,3-b]pyridazine] | 147.8 | 6.00 to 7.00 | 
N#Cc1ccc(Oc2ccc3nnc(Cl)n3n2)c(-c2ccccc2)c1 [Cpd.4-154, 3-chloro-6-(5-cyanobiphenyl-2-yloxy)-[1,2,4]triazolo[4,3-b]pyridazine] | 208 to 209 | 5.22 to 6.00 | 
O=[N+]([O-])c1cccc(-c2cc(F)ccc2Oc2ccc3nnc(Cl)n3n2)c1 [Cpd.4-187, 3-chloro-6-(5-fluoro-3′-nitrobiphenyl-2-yloxy)-[1,2,4]triazolo[4,3-b]pyridazine] | 190.5 | 5.22 to 6.00 | 
FC(F)(F)c1ccc(-c2cncnc2)c(Oc2nn3cnnc3c3ccccc23)c1 [Cpd.5-64, 6-(2-(pyrimidin-5-yl)-5-(trifluoromethyl)phenoxy)-[1,2,4]triazolo[3,4-a]phthalazine] | 220 to 230 | 5.22 to 6.00 | 
Fc1ccc(-c2ccc(F)cc2Oc2ccc3nnc(Cl)n3n2)cc1 [Cpd.4-31, 6-(4′-fluoro-4-fluoro-biphenyl-2-yloxy)-3-chloro-[1,2,4]triazolo[4,3-b]pyridazine] | 129.7 | 6.00 to 7.00 | 
FC(F)(F)c1ccc(-c2ccc(Cl)nc2)c(Oc2ccc3nnc(Cl)n3n2)c1 [Cpd.4-101, 3-chloro-6-(2-(6-chloropyridin-3-yl)-5-(trifluoromethyl)phenoxy)-[1,2,4]triazolo[4,3-b]pyridazine] | 198 to 200 | 6.00 to 7.00 | 
Fc1ccc(-c2cccc(Oc3ccc4nnc(Cl)n4n3)c2)cc1 [Cpd.3-9, 6-(4′-fluoro-biphenyl-3-yloxy)-3-chloro-[1,2,4]triazolo[4,3-b]pyridazine] | 88 | 6.00 to 7.00 | 
O=C(c1ccccc1)c1cc(Br)ccc1Oc1ccc2nnc(Cl)n2n1 [Cpd.4-145, 3-chloro-6-(4-bromo-2-benzoyl-phenoxy)-[1,2,4]triazolo[4,3-b]pyridazine] | 135 to 137 | 5.22 to 6.00 | 

SMILES | melting point [°C] | pEC50 (Rev-Erb alpha) | Emax (Rev-Erb alpha; relative to DMSO, at the tested dose, read-out: TOP activation) [%]
Cc1cc(Oc2cc(C(F)(F)F)ccc2-c2cncnc2)nn2c(C(F)(F)F)nnc12 [Cpd.5-63, 8-methyl-6-(2-(pyrimidin-5-yl)-5-(trifluoromethyl)phenoxy)-3-(trifluoromethyl)-[1,2,4]triazolo[4,3-b]pyridazine] | 167 to 172 | 5.22 to 6.00 | 
Clc1nnc2ccc(Oc3ccc(CNCC4CCCCC4)cc3-c3ccccc3)nn12 [Cpd.4-162, 3-chloro-6-(5-((cyclohexylmethyl)aminomethyl)biphenyl-2-yloxy)-[1,2,4]triazolo[4,3-b]pyridazine] | 53.4 to 55.7 | 5.22 to 6.00 | 
Fc1ccccc1-c1cccc(Oc2ccc3nnc(Cl)n3n2)c1 [Cpd.3-10, 6-(2′-fluoro-biphenyl-3-yloxy)-3-chloro-[1,2,4]triazolo[4,3-b]pyridazine] | 128.6 | 6.00 to 7.00 | 
CN(C)Cc1ccc(-c2ccccc2)c(Oc2ccc3nnc(Cl)n3n2)c1 [Cpd.4-41, 3-chloro-6-(4-N,N-dimethylaminomethyl-biphenyl-2-yloxy)-[1,2,4]triazolo[4,3-b]pyridazine] | 141 to 144 | 5.22 to 6.00 | 
FC(F)(F)c1ccc(-c2ccccc2Oc2ccc3nnc(Cl)n3n2)cc1 [Cpd.4-24, 6-(4′-trifluoromethyl-biphenyl-2-yloxy)-3-chloro-[1,2,4]triazolo[4,3-b]pyridazine] | 185.8 | 6.00 to 7.00 | 
CCc1nnc2cc(C)c(Oc3cc(C(F)(F)F)ccc3-c3cccnc3)nn12 [Cpd.5-49, 3-ethyl-7-methyl-6-(2-(pyridin-3-yl)-5-(trifluoromethyl)phenoxy)-[1,2,4]triazolo[4,3-b]pyridazine] | 174 to 176 | 5.22 to 6.00 | 
CCc1cc(Oc2cc(C(F)(F)F)ccc2-c2ccccc2)nn2c(Cl)nnc12 [Cpd.5-13, 3-chloro-8-ethyl-6-(4-trifluoromethyl-biphenyl-2-yloxy)-[1,2,4]triazolo[4,3-b]pyridazine] | 139.5 to 141.8 | 6.00 to 7.00 | 
COc1ncc(-c2ccc(C(F)(F)F)cc2Oc2nn3c(Cl)nnc3c3ccccc23)c(OC)n1 [Cpd.5-54, 3-chloro-6-(2-(2,4-dimethoxypyrimidin-5-yl)-5-(trifluoromethyl)phenoxy)-[1,2,4]triazolo[3,4-a]phthalazine] | 240 | < 5.22 | > 130
CN(Cc1ccccc1)Cc1ccc(-c2ccccc2)c(Oc2ccc3nnc(Cl)n3n2)c1 [Cpd.4-60, 3-chloro-6-(4-N-methyl-N-benzylaminomethyl-biphenyl-2-yloxy)-[1,2,4]triazolo[4,3-b]pyridazine] | 119 to 122 | 6.00 to 7.00 | 
Oc1ccc(Oc2ccc3nnc(Cl)n3n2)c(-c2ccccc2)c1 [Cpd.4-32, 6-(5-hydroxy-biphenyl-2-yloxy)-3-chloro-[1,2,4]triazolo[4,3-b]pyridazine] | 267.7 | 5.22 to 6.00 | 
CCN(CC)Cc1ccc(-c2ccccc2)c(Oc2ccc3nnc(Cl)n3n2)c1 [Cpd.4-184, 3-chloro-6-(4-diethylaminomethylbiphenyl-2-yloxy)-[1,2,4]triazolo[4,3-b]pyridazine] | 110 to 112 | 5.22 to 6.00 | 
Clc1nnc2ccc(Oc3cc(CN4CCOCC4)ccc3-c3ccccc3)nn12 [Cpd.4-64, 3-chloro-6-(4-morpholinomethyl-biphenyl-2-yloxy)-[1,2,4]triazolo[4,3-b]pyridazine] | 162 to 163 | 5.22 to 6.00 | 
Fc1ccc2c(c1)c(Oc1cc(C(F)(F)F)ccc1-c1ccccc1)nn1c(Cl)nnc21 [Cpd.5-3, 3-chloro-6-(4-trifluoromethyl-biphenyl-2-yloxy)-8-fluoro-[1,2,4]triazolo[3,4-a]phthalazine] | 213 to 215 | 6.00 to 7.00 | 
COC(=O)CCNc1ccc(Oc2ccc3nnc(Cl)n3n2)c(-c2ccccc2)c1 [Cpd.4-190, 3-chloro-6-(5-methyloxycarbonylethylamino-biphenyl-2-yloxy)-[1,2,4]triazolo[4,3-b]pyridazine] | 52 to 57 | 5.22 to 6.00 | 
CC(C)c1cc2nnc(Cl)n2nc1Oc1cc(C(F)(F)F)ccc1-c1ccccc1 [Cpd.5-11, 3-chloro-7-isopropyl-6-(4-trifluoromethyl-biphenyl-2-yloxy)-[1,2,4]triazolo[4,3-b]pyridazine] | 55 to 58 | 6.00 to 7.00 | 
CCOc1ccc(Oc2ccc3nnc(Cl)n3n2)c(-c2ccccc2)c1 [Cpd.4-139, 3-chloro-6-(5-ethoxybiphenyl-2-yloxy)-[1,2,4]triazolo[4,3-b]pyridazine] | 89.7 to 90.8 | 6.00 to 7.00 | 
